Experimental data from patent publication US12133836B2, “Reduction of adipose tissue” (10XBIO, LLC, priority 2015, dated 2024).

Experiments:
fat tissue = test: Co-solvent injected with polidocanol (tolerability, uniformity of fat necrosis); type: in vivo; settings: as co-solvent
[1] = test system: inguinal-lateral fat pad (ILFP); test: Effect of polidocanol on the inguinal-lateral fat pad (ILFP) of hamsters: fat weight analysis; type: in vivo, LVG Syrian Golden Hamsters
From the text: Concentration of polidocanol solutions: 0.5%, 1.25% and 2%; Deoxycholate dose concentration: 1.0%
Species: LVG Syrian Golden Hamsters, retired breeders
Body weight: 165-187 grams (on first day of treatment period); Sex: Male; Vendor: Charles River; Diet: Standard lab chow; Randomization: Animals were grouped so that the mean body weights are approximately equal among the treatment subgroups
(§1) Model: The inguinal fat pads were used as a model tissue. In the golden hamster, these subcutaneous fat pads lying bilaterally in the inguinal region were continuous with fat pads located laterally on each respective flank, and thus were referenced here as inguinal-lateral fat pads or ILFPs. The length of each fat pad offered the opportunity for two injections spaced approximately […] within each fat pad, and similarly placed control injections in the contralateral fat pad of the same animal. The unilateral experimental treatment in this model offered the advantage of paired comparison of treated and non-treated fat pads within individual animals, and served as a model to assess lipolytic effects of test compounds.
(§2) Test Articles: Polidocanol: Solutions provided by Advantar (or other), 0.5%, 1.25%, and 2.0%, formulated with propylene glycol.
(§3) Treatment: Under isoflurane anesthesia, the right ILFP was injected with 0.2 cc of drug solution at two sites (medial and lateral portions of the ILFP), spaced 0.5 cm apart. The left ILFP was injected in medial and lateral sites with filtered vehicle control solution. A total of 36 animals were divided into three dose groups, outlined in the following table:
Harvesting: On day 28 (injections at Day 0) and 56 (injections at Day 0 and Day 28), the animals were sacrificed and the ILFPs excised and weighed (see “INGUINAL/LATERAL FAT PAD HARVESTING PROCEDURE,” below). Medial and lateral portions of each ILFP were weighed together. After weighing, each portion was frozen separately on dry ice and stored frozen for histological analysis.
Fat weight analysis: Results were expressed primarily as the mean difference between the right and left ILFPs in grams (A R-L) and as the percent difference (A R-L %). Statistical analysis was performed.
(§4) The animals were injected percutaneously with 0.2 mL/injection of test article solution at up to four (4) sites (in the medial, central, and lateral portions of the ILFP) running superiorly to caudally, spaced 0.5 cm apart. The injections were carried out by inserting the needle into the right inguinal region, locating the tip of the needle in the middle of the fat pad between the peritoneal wall and the right leg. In hamsters, the fat could be roughly visualized as a light area beneath the skin. The tip of the needle was at a depth adequate to enter the inguinal fat (as discerned by the thickness of tissue when the needle tip is raised slightly upward while in its final position) while avoiding the leg muscle and the peritoneum. The needle tip was placed approximately 0.5 cm medial to a line drawn from the patella of the knee to the xyphoid appendix of the sternum.
With the animal lying ventral side up, skin was cut along abdominal midline from the umbilicus to a point caudal to the penis near the bottom of the scrotum. The skin was cut from the penile area in a posterior and lateral direction toward the posterior of the hindlimb. […] An elipse was harvested of skin overlying the region of the ILFP, and placed in formalin for storage and. […]

adipose tissue = test: Histological analysis of treated adipose tissue (H&E); type: in vivo, LVG Syrian Golden Hamsters; settings: H&E stained sections
Method: Histological analysis: The right (polidocanol treated) medial injection sites of all six subjects, and one left (saline treated) site from each treatment group (animals #3 and #5), were analyzed histologically to determine evidence of necrosis within the adipose tissue. The selected samples were sectioned at a thickness of 20 microns taken at intervals of 0.5 mm through the tissue. The sections were mounted and stained with H&E and examined microscopically for evidence of necrosis or inflammation. Representative images of each tissue were recorded with a Carl Zeiss color camera.
In addition, there is a lymphomononuclear inflammatory infiltrate with macrophage phagocytosis of lipid cell debris.

skin tissue = test: Skin adverse events (skin necrosis) after subcutaneous injection into the inguinal fat pad; type: in vivo, LVG Syrian Golden Hamsters
From the text: as §1, §2, §3, §4

Question: Which results are given for CC(O)CO (centres unmarked) [propylene glycol, propane-1,2-diol]?
Answer: irritation when injected with polidocanol (fat tissue): non-irritating; patchy and incomplete fat tissue necrosis (fat tissue; relative to the absence of co-solvent): reduced amount of patchy and incomplete fat tissue necrosis

Question: Which “visible change in inguinal fat pad fullness / inguinal crease (body contour)” value ([1]; FIG. 5A-5B) does the source give for polidocanol here?
Answer: externally visible reduction in inguinal fat pad fullness

Question: And the “reductions in inguinal fat pad mass” value ([1]; polidocanol 0.5%, day 28 after a single treatment, formulated with propylene glycol)?
Answer: 15%

Question: And the “reductions in inguinal fat pad mass” value ([1]; polidocanol 1.25%, day 28 after a single treatment, formulated with propylene glycol)?
Answer: 15%

Question: And the “fat pad mass reductions” value ([1]; polidocanol 2.0%, day 28 after a single treatment, formulated with propylene glycol)?
Answer: 10%

Question: What about the “reductions in fat pad mass relative to deoxycholate” value ([1]; same optimized dosing frequency, volume, and injection spacing (FIG. 3)) of the same compound?
Answer: at least equivalent to deoxycholate

Question: What about the “histopathology of treated adipose tissue” value (adipose tissue) of the same compound?
Answer: dose dependent changes of fat cell necrosis and apoptosis

Question: And the “skin necrosis (proportion of animals)” value (skin tissue; 2% polidocanol)?
Answer: 33%

Question: And the “selectivity for fat tissue relative to skin tissue” value (skin tissue; FIG. 6)?
Answer: selectively destroys fat tissue relative to skin tissue

Question: And the “skin necrosis side effect, number of animals” value (from here on “skin necrosis side effect”) (skin tissue; Polidocanol 1.25%, Group 2A, moderate skin necrosis (FIG. 8A))?
Answer: 1 of 9

Question: What about the “skin necrosis side effect” value (skin tissue; Polidocanol 2%, Group 3B, moderate skin necrosis (FIG. 8B)) of the same compound?
Answer: 2 animals

Question: What about the “side effects such as skin necrosis, inflammation, large subcutaneous fat droplets” value (skin tissue; polidocanol concentration greater than about 1.25%) of the same compound?
Answer: higher proportion of side effects

Question: And the “animals with mild skin breakdown” value (skin tissue; polidocanol injection at 0.5% (1 of 9 animals))?
Answer: 11%

Question: And the “animals with mild skin breakdown” value (skin tissue; polidocanol injection at 1.25% (1 of 9 animals))?
Answer: 11%

Question: With deoxycholate as the compound, how does the “animals that developed severe skin necrosis” value (skin tissue; 1% deoxycholate (3 of 5 animals)) read?
Answer: 60%

Question: And the “skin necrosis side effect” value (skin tissue; Deoxycholate 1%, Group 4 (FIG. 8C))?
Answer: 3 of 5
